Data taken from PubChem BioAssay AID192 (DTP/NCI, 2004).
Several values for one entry are separate records, joined by “and”; a condition that tells them apart may be missing. Equal entries are not always repeated. Inconclusive results and toxic doses are left out.

System: BDF1 mice, B16 melanoma ip, median survival T/C
Experiment: NCI In Vivo Anticancer Drug Screen. Data for tumor model B16 Melanoma (intraperitoneal) in B6D2F1 (BDF1) mice
Conditions: endpoint: median survival time, higher = longer survival
How it was run: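 Compounds were tested in mice carrying transplantable tumors. Survival or tumor size was recorded, and each value is the treated-group measurement (T) divided by that of the vehicle-treated control group (C).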

[1] = dose: 50.0 mg/kg/injection, schedule: Q01DX009 (ip), vehicle: saline with Tween-80
[2] = dose: 100.0 mg/kg/injection, schedule: Q01DX009 (ip), vehicle: saline with Tween-80
[3] = dose: 200.0 mg/kg/injection, schedule: Q01DX009 (ip), vehicle: saline with Tween-80
[4] = dose: 2.5 mg/kg/injection, schedule: Q01DX009 (ip), vehicle: saline with Tween-80
[5] = dose: 5.0 mg/kg/injection, schedule: Q01DX009 (ip), vehicle: saline with Tween-80
[6] = dose: 25.0 mg/kg/injection, schedule: Q01DX009 (ip), vehicle: Klucel (hydroxypropylcellulose) (HPC)
[7] = dose: 100.0 mg/kg/injection, schedule: Q01DX009 (ip), vehicle: Klucel (hydroxypropylcellulose) (HPC)
[8] = dose: 200.0 mg/kg/injection, schedule: Q01DX009 (ip), vehicle: Klucel (hydroxypropylcellulose) (HPC)
[9] = dose: 25.0 mg/kg/injection, schedule: Q01DX009 (ip), vehicle: saline with Tween-80
[10] = dose: 6.25 mg/kg/injection, schedule: Q01DX009 (ip), vehicle: saline with Tween-80
[11] = dose: 12.5 mg/kg/injection, schedule: Q01DX009 (ip), vehicle: saline with Tween-80

Compound: Cc1cc2nc(CBr)c(CBr)nc2cc1C
- T/C (dose: 0.1 mg/kg/injection, schedule: Q01DX009 (ip), vehicle: saline with Tween-80): 86 % of control
- T/C (dose: 0.2 mg/kg/injection, schedule: Q01DX009 (ip), vehicle: saline with Tween-80): 86 % of control
- T/C (dose: 0.4 mg/kg/injection, schedule: Q01DX009 (ip), vehicle: saline with Tween-80): 92 % of control
- T/C (dose: 0.75 mg/kg/injection, schedule: Q01DX009 (ip), vehicle: saline with Tween-80): 107 % of control
- T/C (dose: 0.8 mg/kg/injection, schedule: Q01DX009 (ip), vehicle: saline with Tween-80): 94 % of control
- T/C (dose: 1.5 mg/kg/injection, schedule: Q01DX009 (ip), vehicle: saline with Tween-80): 97 % of control
- T/C (dose: 3.0 mg/kg/injection, schedule: Q01DX009 (ip), vehicle: saline with Tween-80): 97 % of control
- T/C (dose: 6.0 mg/kg/injection, schedule: Q01DX009 (ip), vehicle: saline with Tween-80): 89 % of control

Compound: Cc1ccc(S(=O)(=O)Oc2ccc(-c3ccc(Br)cc3)cc2)cc1
- T/C [1]: 96 % of control
- T/C [2]: 93 % of control
- T/C [3]: 86 % of control
- T/C (dose: 400.0 mg/kg/injection, schedule: Q01DX009 (ip), vehicle: saline with Tween-80): 91 % of control

Compound: COC(=O)C12Oc3ccc(-c4ccc5c(c4O)C(=O)C4=CCC(C)C(O)C4(C(=O)OC)O5)c(O)c3C(=O)C1=CCC(C)C2O (stereo unspecified)
- T/C [4]: 97 % of control
- T/C [5]: 86 % of control and 98 % of control
- T/C (dose: 10.0 mg/kg/injection, schedule: Q01DX009 (ip), vehicle: saline with Tween-80): 88 % of control and 98 % of control

Compound: CCOC(=O)NC1CCC1NC(=O)OCC (stereo unspecified)
- T/C (dose: 100.0 mg/kg/injection, schedule: Q04DX003 (ip), vehicle: saline with Tween-80): 92 % of control
- T/C (dose: 200.0 mg/kg/injection, schedule: Q04DX003 (ip), vehicle: saline with Tween-80): 95 % of control

Compound: CN1CCC=C(CN2c3ccccc3Sc3ccccc32)C1
- T/C (dose: 25.0 mg/kg/injection, schedule: Q01DX009 (ip), vehicle: saline): 104 % of control
- T/C (dose: 50.0 mg/kg/injection, schedule: Q01DX009 (ip), vehicle: saline): 106 % of control

Compound: CC(=O)C(=O)C1=C2CCCN2CCc2cc3c(cc21)OCO3
- T/C (dose: 12.5 mg/kg/injection, schedule: Q01DX009 (ip), vehicle: water): 93 % of control
- T/C (dose: 25.0 mg/kg/injection, schedule: Q01DX009 (ip), vehicle: water): 98 % of control
- T/C (dose: 50.0 mg/kg/injection, schedule: Q01DX009 (ip), vehicle: water): 117 % of control
- T/C (dose: 100.0 mg/kg/injection, schedule: Q01DX009 (ip), vehicle: water): 89 % of control

Compound: CC(=O)N(C)N(Cc1ccc(C#N)cc1)C(C)=O
- T/C [6]: 98 % of control
- T/C (dose: 50.0 mg/kg/injection, schedule: Q01DX009 (ip), vehicle: Klucel (hydroxypropylcellulose) (HPC)): 96 % of control
- T/C [7]: 99 % of control
- T/C [8]: 98 % of control
- T/C (dose: 400.0 mg/kg/injection, schedule: Q01DX009 (ip), vehicle: Klucel (hydroxypropylcellulose) (HPC)): 95 % of control

Compound: Cc1c(O)c2c(c(O)c1Cc1ccc(CN)cc1)C(=O)c1ccccc1C2=O
- T/C (dose: 0.78 mg/kg/injection, schedule: Q01DX009 (ip), vehicle: water): 109 % of control
- T/C (dose: 1.56 mg/kg/injection, schedule: Q01DX009 (ip), vehicle: water): 109 % of control
- T/C (dose: 3.13 mg/kg/injection, schedule: Q01DX009 (ip), vehicle: water): 98 % of control
- T/C (dose: 6.25 mg/kg/injection, schedule: Q01DX009 (ip), vehicle: water): 93 % of control

Compound: C=C(CCCCC)C(=O)/C=C/c1ccc(Cl)cc1
- T/C (dose: 75.0 mg/kg/injection, schedule: Q04DX003 (ip), vehicle: Klucel (hydroxypropylcellulose) (HPC)): 94 % of control
- T/C (dose: 150.0 mg/kg/injection, schedule: Q04DX003 (ip), vehicle: Klucel (hydroxypropylcellulose) (HPC)): 94 % of control

Compound: C1=C(c2ccccc2)CCCC1
- T/C (dose: 100.0 mg/kg/injection, schedule: Q04DX003 (ip), vehicle: Klucel (hydroxypropylcellulose) (HPC)): 90 % of control
- T/C (dose: 200.0 mg/kg/injection, schedule: Q04DX003 (ip), vehicle: Klucel (hydroxypropylcellulose) (HPC)): 93 % of control
- T/C (dose: 400.0 mg/kg/injection, schedule: Q04DX003 (ip), vehicle: Klucel (hydroxypropylcellulose) (HPC)): 103 % of control

Compound: NC(=O)C(N)=O
- T/C [7]: 103 % of control
- T/C [8]: 96 % of control

Compound: O=C1CN(CCN2CC(=O)NC(=O)C2)CC(=O)N1
- T/C (dose: 15.0 mg/kg/injection, schedule: Q01DX009 (oral), vehicle: saline): 115 % of control
- T/C (dose: 30.0 mg/kg/injection, schedule: Q01DX009 (oral), vehicle: saline): 122 % of control

Compound: CCCC(=O)OCC1OC(n2cnc3c(=S)nc[nH]c32)C(OC(=O)CCC)C1OC(=O)CCC (stereo unspecified)
- T/C [9]: 105 % of control
- T/C [1]: 90 % of control

Compound: CC(=O)[C@]1(O)Cc2c(O)c3c(c(O)c2[C@@H](OC2CC(N)C(O)C(C)O2)C1)C(=O)c1c(O)cccc1C3=O (stereo partly specified)
- T/C (dose: 0.04 mg/kg/injection, schedule: Q01DX001 (ip), vehicle: water): 105 % of control
- T/C (dose: 0.08 mg/kg/injection, schedule: Q01DX001 (ip), vehicle: water): 113 % of control and 124 % of control
- T/C (dose: 0.16 mg/kg/injection, schedule: Q01DX001 (ip), vehicle: water): 124 % of control
- T/C (dose: 0.38 mg/kg/injection, schedule: Q01DX001 (ip), vehicle: water): 124 % of control

Compound: CC(CN=Cc1ccccc1[O-])N=Cc1ccccc1[O-].[O]=[V] (stereo unspecified)
- T/C [4]: 90 % of control
- T/C [5]: 90 % of control
- T/C (dose: 5.0 mg/kg/injection, schedule: Q04DX003 (ip), vehicle: saline with Tween-80): 97 % of control
- T/C (dose: 10.0 mg/kg/injection, schedule: Q04DX003 (ip), vehicle: saline with Tween-80): 92 % of control

Compound: ClCCN(CCCl)CCN1c2ccccc2Sc2ccccc21
- T/C (dose: 1.56 mg/kg/injection, schedule: Q01DX009 (ip), vehicle: saline with Tween-80): 105 % of control and 122 % of control
- T/C (dose: 3.12 mg/kg/injection, schedule: Q04DX003 (ip), vehicle: Klucel (hydroxypropylcellulose) (HPC)): 107 % of control
- T/C [10]: 123 % of control
- T/C (dose: 6.25 mg/kg/injection, schedule: Q04DX003 (ip), vehicle: Klucel (hydroxypropylcellulose) (HPC)): 115 % of control

Compound: COc1cc([C@@H]2c3cc4c(cc3[C@@H](OC3OC5CO[C@@H](c6cccs6)OC5C(O)C3O)[C@H]3COC(=O)[C@H]23)OCO4)cc(OC)c1O (stereo partly specified)
- T/C (dose: 0.25 mg/kg/injection, schedule: Q01DX009 (ip), vehicle: clinical formulation): 183 % of control
- T/C (dose: 0.25 mg/kg/injection, schedule: Q01DX009 (ip), vehicle: saline): 171 % of control
- T/C (dose: 0.5 mg/kg/injection, schedule: Q01DX009 (ip), vehicle: clinical formulation): 223 % of control
- T/C (dose: 0.5 mg/kg/injection, schedule: Q01DX009 (ip), vehicle: saline): 166 % of control and 214 % of control
- T/C (dose: 0.5 mg/kg/injection, schedule: Q01DX009 (ip), vehicle: water): 173 % of control
- T/C (dose: 1.0 mg/kg/injection, schedule: Q01DX009 (ip), vehicle: clinical formulation): 269 % of control
- T/C (dose: 1.0 mg/kg/injection, schedule: Q01DX009 (ip), vehicle: saline): 185 % of control and 254 % of control
- T/C (dose: 1.0 mg/kg/injection, schedule: Q01DX009 (ip), vehicle: water): 178 % of control
- T/C (dose: 2.0 mg/kg/injection, schedule: Q01DX009 (ip), vehicle: clinical formulation): 285 % of control
- T/C (dose: 2.0 mg/kg/injection, schedule: Q01DX009 (ip), vehicle: saline): 204 % of control and 285 % of control
- T/C (dose: 2.0 mg/kg/injection, schedule: Q01DX009 (ip), vehicle: water): 204 % of control
- T/C (dose: 4.0 mg/kg/injection, schedule: Q01DX009 (ip), vehicle: saline): 257 % of control

Compound: O=C1NC(=O)C(=Cc2cc3c(cc2Br)OCO3)C(=O)N1
- T/C [11]: 97 % of control
- T/C [9]: 94 % of control
- T/C [1]: 94 % of control

Compound: CCCCNC(C)(C)C(S)c1ccc(Cl)cc1 (stereo unspecified)
- T/C (dose: 6.25 mg/kg/injection, schedule: Q01DX009 (ip), vehicle: Klucel (hydroxypropylcellulose) (HPC)): 102 % of control
- T/C (dose: 12.5 mg/kg/injection, schedule: Q01DX009 (ip), vehicle: Klucel (hydroxypropylcellulose) (HPC)): 97 % of control
- T/C [6]: 89 % of control

Compound: O=C(O)CC(NC(=O)c1ccccc1)C(=O)O (stereo unspecified)
- T/C [10]: 100 % of control
- T/C [11]: 102 % of control
- T/C [9]: 109 % of control
- T/C [1]: 93 % of control and 100 % of control

Compound: CC(C)C(C(=O)c1ccccc1)C(c1ccccc1)c1ccccc1 (stereo unspecified)
- T/C (dose: 100.0 mg/kg/injection, schedule: Q04DX003 (ip), vehicle: other): 92 % of control
- T/C (dose: 200.0 mg/kg/injection, schedule: Q04DX003 (ip), vehicle: other): 94 % of control

Compound: CC(=O)Nc1ccc(C)c(Cl)c1
- T/C [2]: 111 % of control
- T/C [3]: 90 % of control
